Consider 22 compounds from US20240293579A1, “Composition Comprising Trim31 and Rhbdf2 for Treatment of NAFLD/NASH” (CHONGQING MEIPULAN TECHNOLOGY CO., LTD, priority 2021, published 2024).

Like-named read-outs stand apart in the source and are kept apart here.

The test system of this assay is TRIM31 mRNA. Briefly: TRIM31 mRNA expression by RT-qPCR in PA/OA-induced L02 cells. The assay is classed as cell-based, human. The conditions noted are these: for fold induction at 100 µM: Homo sapiens. As to the method:
Palmitic acid/oleic acid (PA/OA) was used to induce the decrease of TRIM31 mRNA expression in human hepatocyte L02 cells. The cells were divided into control group and drug group. The drug group was treated with a concentration of 100 μmol/L compound, and the expression level of TRIM31 mRNA was detected by RT-qPCR. The expression level of TRIM31 mRNA in the drug group divided by that in the control group (Qdrug/Qctrl) was used to evaluate the ability of the compounds to promote TRIM31 expression. […]

Where [1] appears, read: 100 μmol/L compound, PA/OA-induced L02 cells, RT-qPCR, read-out: Qdrug/Qctrl (TRIM31 mRNA expression level, drug group divided by control group).
The mark [2] stands for this setting: L02, read-out: Qdrug/Qctrl (TRIM31 mRNA expression level, drug group divided by control group).
The mark [3] stands for this setting: 100 μmol/L compound, PA/OA-induced L02 cells, RT-qPCR.

For `C[C@@H]1O[C@@H](OC[C@H]2O[C@@H](Oc3c(-c4ccc(O)c(O)c4)oc4cc(O)cc(O)c4c3=O)[C@H](O)[C@@H](O)[C@@H]2O)[C@H](O)[C@H](O)[C@H]1O` [Rutin], under setting [1], the fold induction at 100 µM was 2.86.
Consider `O=c1cc(-c2ccc(O)cc2)oc2cc(O)c(O)c(O)c12` [Scutellarein], for which, under setting [2], the fold induction at 100 µM worked out at 3.2.
For `COC(=O)C1=CO[C@@H](C)[C@H]2Cn3ccc4c5ccccc5nc-4c3C[C@H]12` [Serpentine], the “Qdrug/Qctrl (TRIM31 mRNA expression level, drug group divided by control group)” value under setting [3] came to 1.33 fold.
In the case of `COc1cc(C2Oc3cc([C@H]4Oc5cc(O)cc(O)c5C(=O)[C@@H]4O)ccc3OC2CO)ccc1O` (stereo partly shown) [Silibinin], under setting [1], the fold induction at 100 µM stood at 3.12.
For the compound `O=C1CCC[C@@H]2[C@H]3CCCN4CCC[C@@H](CN12)[C@@H]34` [Sophocarpidine], the “Qdrug/Qctrl (TRIM31 mRNA expression level, drug group divided by control group)” value under setting [3] was 1.30 fold.
In the case of `CNC(=O)c1cc(Oc2ccc(NC(=O)Nc3ccc(Cl)c(C(F)(F)F)c3)cc2)ccn1` [Sorafenib, reference compound], the fold induction at 100 µM under setting [1] was found to be 2.86.
For the compound `C[C@H](CCC(=O)NCCS(=O)(=O)O)[C@H]1CC[C@H]2[C@@H]3[C@H](O)C[C@@H]4C[C@H](O)CC[C@]4(C)[C@H]3CC[C@]12C` [Taurochenodeoxycholic acid], the “Qdrug/Qctrl (TRIM31 mRNA expression level, drug group divided by control group)” value under setting [3] was 2.51 fold.
Take `C[C@H](CCC(=O)NCCS(=O)(=O)O)[C@H]1CC[C@H]2[C@@H]3[C@@H](O)C[C@@H]4C[C@H](O)CC[C@]4(C)[C@H]3CC[C@]12C` [Tauroursodeoxycholic acid, reference compound]: under setting [1], the fold induction at 100 µM was found to be 2.77.
Take `COc1cc2c(cc1OC)[C@@H]1Cc3ccc(OC)c(OC)c3CN1CC2` [Tetrahydropalmatine]: under setting [2], the fold induction at 100 µM turned out to be 1.76.
Turning to `COc1ccc2cc1Oc1ccc(cc1)C[C@H]1c3cc(c(OC)cc3CCN1C)Oc1c(OC)c(OC)cc3c1[C@H](C2)N(C)CC3` [Tetrandrine], the fold induction at 100 µM under setting [1] was found to be 1.56.
For the compound `O=C1CCC(N2C(=O)c3ccccc3C2=O)C(=O)N1` (stereo not shown) [Thalidomide, reference compound], under setting [2], the fold induction at 100 µM was found to be 1.88.
Same read-out and setting: the value for `COc1cc(-c2cc(=O)c3c(O)cc(O)cc3o2)cc(OC)c1O` [Tricin] was 2.9.
In the case of `C[C@H](CCC(=O)O)[C@H]1CC[C@H]2[C@@H]3[C@@H](O)C[C@@H]4C[C@H](O)CC[C@]4(C)[C@H]3CC[C@]12C` [Ursodesoxycholic acid, reference compound], under setting [1], the fold induction at 100 µM worked out at 2.85.
With `COc1c(O)cc(O)c2c(=O)cc(-c3ccccc3)oc12` [Wogonin], the fold induction at 100 µM under setting [1] worked out at 3.05.
As to `O=c1cc(-c2ccc(O)c(O)c2)oc2cc(O[C@@H]3O[C@H](CO)[C@@H](O)[C@H](O)[C@H]3O)cc(O)c12` [luteolin 7-O-β-D-glucoside], the “Qdrug/Qctrl (TRIM31 mRNA expression level, drug group divided by control group)” value under setting [3] is 2.83 fold.
The same measure, in the same setting: as for Anthocyanidin, the figure is 3.68 fold.
On the same count and under the same terms, the value for Breviscapine was 3.29 fold; that for Catechin was 3.21 fold; that for Cynarascoloside C was 2.34 fold.
Still for that read-out and setting: as for Orixine, the figure is 1.69 fold; as for Proanthocyanidin, 3.12 fold; as for Punicosides, 2.64 fold.
